Values of other authors as cited in US4127519A, “Octadecapeptides, intermediates therefor, and compositions and methods employing said octadecapeptides” (priority 1977, dated 1978).

Tests used:
[1] = test system: brain opiate receptor sites
[2] = injected directly into the brain of the rat

For “H-Tyr-Gly-Gly-Phe-Met-OH [methionine enkephalin]”, the “binding to partially purified brain opiate receptor sites” value [1] is given as “binds stereo-specifically” and the analgesic activity [2] is given as “weak analgesic agent of short duration”.
